Where a name gives a salt, the structure may show the parent alone.
Assay: Phase 1 dose escalation study in healthy post-menopausal women, treatment related AEs
Type: in vivo
Experimental: The subjects were 40-75 years old with BMI of 18.0-30 kg/m^2. Subjects having evidence of clinically relevant pathology, increased risk of stroke or of history venous thromboembolic events, or use of concomitant medication less than 14 days prior to admission to clinical research center (paracetamol allowed up to 3 days prior) were excluded. Dosing
The subjects were treated with placebo or at least one dose p.o., q.d. after a light breakfast for 7 days at dose levels of 200 mg, 500 mg, 750 mg and 1000 mg, respectively.

CCNCCc1ccc(CN(CC)c2cc(OC)ccc2[C@@H]2CCc3cc(O)ccc3C2)cc1 [RAD1901, (6R)-6-(2-(N-(4-(2-(ethylamino)ethyl)benzyl)-N-ethylamino)-4-methoxyphenyl)-5,6,7,8-tetrahydronaphthalen-2-ol dihydrochloride]
Abdominal discomfort Gr1 (200 mg, N = 15): 3 (20) n(%)
Abdominal discomfort Gr2 (200 mg, N = 15): 0 n(%)
Abdominal discomfort Gr3 (200 mg, N = 15): 0 n(%)
Abdominal distension Gr1 (200 mg, N = 15): 1 (7) n(%)
Abdominal distension Gr2 (200 mg, N = 15): 1 (7) n(%)
Abdominal distension Gr3 (200 mg, N = 15): 0 n(%)
Abdominal pain Gr1 (200 mg, N = 15): 2 (13) n(%)
Abdominal pain Gr2 (200 mg, N = 15): 2 (13) n(%)
Abdominal pain Gr3 (200 mg, N = 15): 0 n(%)
Diarrhoea Gr1 (200 mg, N = 15): 0 n(%)
Diarrhoea Gr2 (200 mg, N = 15): 0 n(%)
Diarrhoea Gr3 (200 mg, N = 15): 0 n(%)
Dizziness Gr1 (200 mg, N = 15): 1 (7) n(%)
Dizziness Gr2 (200 mg, N = 15): 0 n(%)
Dizziness Gr3 (200 mg, N = 15): 0 n(%)
Dyspepsia Gr1 (200 mg, N = 15): 3 (20) n(%)
Dyspepsia Gr2 (200 mg, N = 15): 0 n(%)
Dyspepsia Gr3 (200 mg, N = 15): 0 n(%)
Dysphagia Gr1 (200 mg, N = 15): 0 n(%)
Dysphagia Gr2 (200 mg, N = 15): 0 n(%)
Dysphagia Gr3 (200 mg, N = 15): 0 n(%)
Flatulance Gr1 (200 mg, N = 15): 2 (13) n(%)
Flatulance Gr2 (200 mg, N = 15): 0 n(%)
Flatulance Gr3 (200 mg, N = 15): 0 n(%)
Headache Gr1 (200 mg, N = 15): 3 (20) n(%)
Headache Gr2 (200 mg, N = 15): 0 n(%)
Headache Gr3 (200 mg, N = 15): 0 n(%)
Hiccups Gr1 (200 mg, N = 15): 1 (7) n(%)
Hiccups Gr2 (200 mg, N = 15): 0 n(%)
Hiccups Gr3 (200 mg, N = 15): 0 n(%)
Hot flush Gr1 (200 mg, N = 15): 2 (13) n(%)
Hot flush Gr2 (200 mg, N = 15): 0 n(%)
Hot flush Gr3 (200 mg, N = 15): 0 n(%)
Myalgia Gr1 (200 mg, N = 15): 2 (13) n(%)
Myalgia Gr2 (200 mg, N = 15): 1 (7) n(%)
Myalgia Gr3 (200 mg, N = 15): 0 n(%)
Nausea Gr1 (200 mg, N = 15): 5 (33) n(%)
Nausea Gr2 (200 mg, N = 15): 0 n(%)
Nausea Gr3 (200 mg, N = 15): 0 n(%)
Odynophagia Gr1 (200 mg, N = 15): 2 (13) n(%)
Odynophagia Gr2 (200 mg, N = 15): 0 n(%)
Odynophagia Gr3 (200 mg, N = 15): 0 n(%)
Oesophageal pain Gr1 (200 mg, N = 15): 0 n(%)
Oesophageal pain Gr2 (200 mg, N = 15): 2 (13) n(%)
Oesophageal pain Gr3 (200 mg, N = 15): 0 n(%)
Salivary hypersecretion Gr1 (200 mg, N = 15): 2 (13) n(%)
Salivary hypersecretion Gr2 (200 mg, N = 15): 0 n(%)
Salivary hypersecretion Gr3 (200 mg, N = 15): 0 n(%)
Sensation of a foreign body Gr1 (200 mg, N = 15): 2 (13) n(%)
Sensation of a foreign body Gr2 (200 mg, N = 15): 0 n(%)
Sensation of a foreign body Gr3 (200 mg, N = 15): 0 n(%)
Vomiting Gr1 (200 mg, N = 15): 2 (13) n(%)
Vomiting Gr2 (200 mg, N = 15): 0 n(%)
Vomiting Gr3 (200 mg, N = 15): 0 n(%)
Abdominal discomfort Gr1 (500 mg, N = 14): 0 n(%)
Abdominal discomfort Gr2 (500 mg, N = 14): 0 n(%)
Abdominal discomfort Gr3 (500 mg, N = 14): 0 n(%)
Abdominal distension Gr1 (500 mg, N = 14): 1 n(%)
Abdominal distension Gr2 (500 mg, N = 14): 0 n(%)
Abdominal distension Gr3 (500 mg, N = 14): 0 n(%)
Abdominal pain Gr1 (500 mg, N = 14): 3 n(%)
Abdominal pain Gr2 (500 mg, N = 14): 0 n(%)
Abdominal pain Gr3 (500 mg, N = 14): 0 n(%)
Diarrhoea Gr1 (500 mg, N = 14): 3 n(%)
Diarrhoea Gr2 (500 mg, N = 14): 0 n(%)
Diarrhoea Gr3 (500 mg, N = 14): 0 n(%)
Dizziness Gr1 (500 mg, N = 14): 2 n(%)
Dizziness Gr2 (500 mg, N = 14): 0 n(%)
Dizziness Gr3 (500 mg, N = 14): 0 n(%)
Dyspepsia Gr1 (500 mg, N = 14): 5 n(%)
Dyspepsia Gr2 (500 mg, N = 14): 2 (14) n(%)
Dyspepsia Gr3 (500 mg, N = 14): 0 n(%)
Dysphagia Gr1 (500 mg, N = 14): 1 n(%)
Dysphagia Gr2 (500 mg, N = 14): 2 (14) n(%)
Dysphagia Gr3 (500 mg, N = 14): 0 n(%)
Flatulance Gr1 (500 mg, N = 14): 2 n(%)
Flatulance Gr2 (500 mg, N = 14): 0 n(%)
Flatulance Gr3 (500 mg, N = 14): 0 n(%)
Headache Gr1 (500 mg, N = 14): 1 n(%)
Headache Gr2 (500 mg, N = 14): 1 (7) n(%)
Headache Gr3 (500 mg, N = 14): 0 n(%)
Hiccups Gr1 (500 mg, N = 14): 4 n(%)
Hiccups Gr2 (500 mg, N = 14): 0 n(%)
Hiccups Gr3 (500 mg, N = 14): 0 n(%)
Hot flush Gr1 (500 mg, N = 14): 6 n(%)
Hot flush Gr2 (500 mg, N = 14): 0 n(%)
Hot flush Gr3 (500 mg, N = 14): 0 n(%)
Myalgia Gr1 (500 mg, N = 14): 0 n(%)
Myalgia Gr2 (500 mg, N = 14): 1 (7) n(%)
Myalgia Gr3 (500 mg, N = 14): 0 n(%)
Nausea Gr1 (500 mg, N = 14): 3 n(%)
Nausea Gr2 (500 mg, N = 14): 2 (14) n(%)
Nausea Gr3 (500 mg, N = 14): 0 n(%)
Odynophagia Gr1 (500 mg, N = 14): 1 n(%)
Odynophagia Gr2 (500 mg, N = 14): 1 (7) n(%)
Odynophagia Gr3 (500 mg, N = 14): 0 n(%)
Oesophageal pain Gr1 (500 mg, N = 14): 1 n(%)
Oesophageal pain Gr2 (500 mg, N = 14): 3 (21) n(%)
Oesophageal pain Gr3 (500 mg, N = 14): 0 n(%)
Salivary hypersecretion Gr1 (500 mg, N = 14): 2 n(%)
Salivary hypersecretion Gr2 (500 mg, N = 14): 0 n(%)
Salivary hypersecretion Gr3 (500 mg, N = 14): 0 n(%)
Sensation of a foreign body Gr1 (500 mg, N = 14): 1 n(%)
Sensation of a foreign body Gr2 (500 mg, N = 14): 0 n(%)
Sensation of a foreign body Gr3 (500 mg, N = 14): 0 n(%)
Vomiting Gr1 (500 mg, N = 14): 1 n(%)
Vomiting Gr2 (500 mg, N = 14): 5 (36) n(%)
Vomiting Gr3 (500 mg, N = 14): 1 (7) n(%)
Abdominal discomfort Gr1 (750 mg, N = 8): 1 (13) n(%)
Abdominal discomfort Gr2 (750 mg, N = 8): 1 (13) n(%)
Abdominal discomfort Gr3 (750 mg, N = 8): 0 n(%)
Abdominal distension Gr1 (750 mg, N = 8): 1 (13) n(%)
Abdominal distension Gr2 (750 mg, N = 8): 0 n(%)
Abdominal distension Gr3 (750 mg, N = 8): 0 n(%)
Abdominal pain Gr1 (750 mg, N = 8): 1 (13) n(%)
Abdominal pain Gr2 (750 mg, N = 8): 0 n(%)
Abdominal pain Gr3 (750 mg, N = 8): 0 n(%)
Diarrhoea Gr1 (750 mg, N = 8): 0 n(%)
Diarrhoea Gr2 (750 mg, N = 8): 0 n(%)
Diarrhoea Gr3 (750 mg, N = 8): 0 n(%)
Dizziness Gr1 (750 mg, N = 8): 1 (13) n(%)
Dizziness Gr2 (750 mg, N = 8): 0 n(%)
Dizziness Gr3 (750 mg, N = 8): 0 n(%)
Dyspepsia Gr1 (750 mg, N = 8): 4 (50) n(%)
Dyspepsia Gr2 (750 mg, N = 8): 0 n(%)
Dyspepsia Gr3 (750 mg, N = 8): 0 n(%)
Dysphagia Gr1 (750 mg, N = 8): 3 (38) n(%)
Dysphagia Gr2 (750 mg, N = 8): 1 (13) n(%)
Dysphagia Gr3 (750 mg, N = 8): 0 n(%)
Flatulance Gr1 (750 mg, N = 8): 1 (13) n(%)
Flatulance Gr2 (750 mg, N = 8): 0 n(%)
Flatulance Gr3 (750 mg, N = 8): 0 n(%)
Headache Gr1 (750 mg, N = 8): 3 (38) n(%)
Headache Gr2 (750 mg, N = 8): 0 n(%)
Headache Gr3 (750 mg, N = 8): 0 n(%)
Hiccups Gr1 (750 mg, N = 8): 2 (25) n(%)
Hiccups Gr2 (750 mg, N = 8): 0 n(%)
Hiccups Gr3 (750 mg, N = 8): 0 n(%)
Hot flush Gr1 (750 mg, N = 8): 2 (25) n(%)
Hot flush Gr2 (750 mg, N = 8): 0 n(%)
Hot flush Gr3 (750 mg, N = 8): 0 n(%)
Myalgia Gr1 (750 mg, N = 8): 1 (13) n(%)
Myalgia Gr2 (750 mg, N = 8): 0 n(%)
Myalgia Gr3 (750 mg, N = 8): 0 n(%)
Nausea Gr1 (750 mg, N = 8): 2 (25) n(%)

Source: US20240099996A1, “METHODS FOR TREATING CANCER” (Radius Pharmaceuticals, Inc., priority 2015, published 2024)
